Experimental data reported in patent US8252737B2, “Antimicrobial peptides and methods of use” (priority 2004, dated 2012).
Values after ≈ are worked out from the molar mass of the structure shown.

How the values were obtained:
[1] = RP-HPLC temperature profiling (hydrophobicity and self-association/dimerization parameter PA); format: physicochemical
Experimental: The retention time data for the peptides is shown in Table 5 which records retention times at 5° C., the maximal retention times and retention times at 80° C. during the temperature profiling. Temperatures of 5° C. and 80° C. were the lower and upper temperature limits of temperature profiling in RP-HPLC, representing dimerization of the peptides at 5° C. and the monomerization of peptides at 80° C. due to dissociation of the dimers. The maximal retention times represent the threshold points at which peptides transform from dimeric to monomeric form. Among the non-polar face substituted peptides, peptides with more hydrophobic substitutions (whether L- or D-amino acid substitutions) were more retained during RP-HPLC, i.e., peptides were eluted in the order of Lys, Gly, Ser, Ala, Val and Leu (Table 5). In addition, on the non-polar face, the L-analogs were always more retained than the D-diastereomers (Table 5, FIG. 5). […] In contrast, on the polar face, the elution order of peptides was not correlated with the order of amino acid side-chain hydrophobicity, e.g., PAL and PSL were more retained than PVL (Table 5); PSD was the most retained peptide among the D-amino acid substituted analogs on the polar face (Table 5).
The ability of the D-peptides to self-associate was determined by RP-HPLC temperature profiling. […] As expected, L- and D-peptide enantiomers were totally inseparable over this temperature range, since each pair of peptides is identical in sequence and must adopt identical conformations on interacting with the reversed-phase matrix, whether in an all-L- or all-D-conformation. RP-HPLC retention behavior has been frequently utilized to represent overall peptide hydrophobicity (53, 26). In the present study, the hydrophobicity of the three peptide pairs is in the order V681/D-V681>[…]>NKL/D-NKD (Table 4), which agrees with the change in hydrophobicity of the substitutions at position 13 in order of the most hydrophobic to the least hydrophobic amino acid residue (Val in V681>Ala in NA>Lys in NK) (54). […] For example, the retention times of peptides V681/D-V681 increase with increasing temperature (up to ˜30° C.) followed by a retention time decrease with a further temperature increase. […] Since peptide C is a monomeric random coil peptide in both aqueous and hydrophobic media, its retention behavior over the temperature range 5° C. to 80° C. represents only general temperature effects on peptide retention behavior, i.e., a linear decrease in peptide retention time with increasing temperature due to greater solute diffusivity and enhanced mass transfer between the stationary and mobile phases at higher temperatures (55). Thus, after normalization to the retention times of peptide C, the retention behavior of the peptides represents only peptide self-association ability. Note that the higher the PA value, the greater the self-association ability. […] From Table 4, it is also clear that the peptide retention times at 80° C. are dramatically lower than those at 5° C.
Elution times during RP-HPLC have frequently been utilized as a measure of relative hydrophobicity of peptide analogs (26, 31). In the current study, peptide analogs differed only by a single amino acid substitution on either the non-polar face or the polar face of V681; thus, the retention time data in Table 5 can be considered to reflect the hydrophobicity difference between peptide analogs. In order to more easily visualize the variation in hydrophobicity of the peptide analogs, the retention time data in Table 5 were normalized relative to that of the native peptide V681 at 5° C. and 80° C., respectively. Hydrophobicity relative to the native peptide V681 indicates an increase or decrease of the apparent peptide hydrophobicity with the different amino acid substitutions on the polar or non-polar face. […]

[2] = Circular dichroism spectroscopy of helical structure (benign buffer and 50% TFE); format: physicochemical; details: 25° C.
Experimental: To determine the secondary structure of peptides in different environments, circular dichroism (CD) spectra of the peptide analogs were measured under physiologically related pH and ionic strength (100 mM KCl, 50 mM aq. PO4, pH 7 referred to as benign conditions) and also in 50% TFE to mimic the hydrophobic environment of the membrane. […] On the non-polar face, the native L-Val residue was critical in maintaining α-helical structure. […] Even the substitution with L-Ala, which is known to have the highest α-helical propensity of all 20 amino acids (34), could not stabilize the α-helical structure. […] It is noteworthy that, on the non-polar face, the magnitude of the helical content of L-peptides in benign buffer was related to the hydrophobicity of the substituting amino acids, i.e., NLL>NVL>NAL>NSL, NKL, again showing the importance of hydrophobicity on the non-polar face in maintaining the α-helical structure. […] However, whether L- or D-substitutions were made on the non-polar face, high helical structure could be induced by the hydrophobic environment of 50% TFE, a mimic of the membrane's hydrophobicity and α-helix inducing ability (Table 3).
To determine the secondary structure of the D-enantiomeric peptides in different environments, CD spectra of the peptide analogs were measured under benign conditions (100 mM KCl, 50 mM KH2PO4/K2HPO4, pH 7.4, referred to as KP buffer) and also in 50% trifluoroethanol (TFE) to mimic the hydrophobic environment of the membrane. […] However, in the presence of 50% TFE, all three L-peptides were fully folded α-helical structures with similar ellipticities and helicity (Table 4).
Characterization of Helical Structure—The mean residue molar ellipticities of peptides were determined by circular dichroism (CD) spectroscopy, using a Jasco J-720 spectropolarimeter (Jasco, Easton, Md.), at 25° C. under benign conditions (50 mM KH2PO4/K2HPO4/100 mM KCl, pH 7), as well as in the presence of an α-helix inducing solvent, 2,2,2-trifluoroethanol (TFE) (50 mM KH2PO4/K2HPO4/100 mM KCl, pH 7 buffer/50% TFE). A 10-fold dilution of a ˜500 μM stock solution of the peptide analogs was loaded into a 0.02 cm fused silica cell and its ellipticity scanned from 190 to 250 nm. The values of molar ellipticities of the peptide analogs at a wavelength of 222 nm were used to estimate the relative α-helicity of the peptides.

human erythrocytes [3] = test: Hemolytic activity (MHC), Protocol A, 12 hours; details: incubation for 12 hours at 37° C. (Tables 7 and 8)
Experimental: (§1) Measurement of Hemolytic Activity—Protocol A: Peptide samples were added to 1% human erythrocytes in phosphate buffered saline (0.08M NaCl; 0.043M Na2PO4; 0.011M KH2PO4) and reactions were incubated at 37° C. for 12 hours in microtiter plates. Peptide samples were diluted 2 fold in order to determine the concentration that produced no hemolysis. […] Hemoglobin release was determined spectrophotometrically at 562 nm. The hemolytic titer was the highest 2-fold dilution of the peptide that still caused release of hemoglobin from erythrocytes. The control for no release of hemoglobin was a sample of 1% erythrocytes without any peptide added. […] Peptide samples were diluted 2 fold in order to determine the concentration that produced no hemolysis. […] Hemoglobin release was determined spectrophotometrically at 570 nm. The hemolytic titer was the highest 2-fold dilution of the peptide that still caused release of hemoglobin from erythrocytes. The control for no release of hemoglobin was a sample of 1% erythrocytes without any peptide added.

[4] = tested on: Pseudomonas aeruginosa strains; details: for MIC (μg/ml) CP 204: Pseudomonas aeruginosa clinical isolate CP 204; for MIC (μg/ml) M 2: Pseudomonas aeruginosa clinical isolate M 2; for MIC (μg/ml) PA 14: Pseudomonas aeruginosa clinical isolate PA 14; for MIC (μg/ml) PAK: Pseudomonas aeruginosa clinical isolate PAK; for MIC (μg/ml) PAO 1: Pseudomonas aeruginosa clinical isolate PAO 1; for MIC (μg/ml) WR 5: Pseudomonas aeruginosa clinical isolate WR 5; for MIC (μg/ml) GM: geometric mean of the MIC values for the 6 Pseudomonas aeruginosa clinical isolates
Experimental: Pseudomonas aeruginosa strains used in this study are a diverse group of clinical isolates from different places in the world. […] The geometric mean MIC values from six Pseudomonas aeruginosa strains were calculated to provide an overall evaluation of antimicrobial activity of these peptides against Pseudomonas aeruginosa. Fold improvement was calculated by comparing the geometric mean MIC value of each peptide to that of the parent peptide V681.
Measurement of Antimicrobial Activity—Minimal inhibitory concentrations (MICs) were determined using a standard microtiter dilution method in LB (Luria-Bertani) no-salt medium (10 g of tryptone and 5 g of yeast extract per liter). Briefly, cells were grown overnight at 37° C. in LB and diluted in the same medium. […] Plates were incubated at 37° C. for 24 hours and MICs determined as the lowest peptide concentration that inhibited growth. Alternatively, minimal inhibitory concentrations were determined using a standard microtiter dilution method in a Mueller-Hinton (MH) medium. Briefly, cells were grown overnight at 37° C. in MH broth and diluted in the same medium. […] Plates were incubated at 37° C. for 24 hours and MICs determined as the lowest peptide concentration that inhibited growth. However, for MIC determination of Pseudomonas aeruginosa clinical isolates, brain heart infusion (BH1) medium was used instead of MH broth. In addition, the bacteria were diluted to a final inoculum of 1×10^6 colony-forming units/ml.
For the Leu-substituted peptides, the hemolytic activity against human erythrocytes was determined as the maximal peptide concentration that produces no hemolysis after 18 hours of incubation at 37° C. Antimicrobial activity of the peptides was determined on a diverse group of Pseudomonas aeruginosa clinical isolates. […] The geometric mean MIC values from six Pseudomonas strains in Table 14 were calculated to provide an overall evaluation of antimicrobial activity of the peptides with different hydrophobicities.

human erythrocytes [5] = test: Hemolytic activity (MHC), Protocol B, 18 hours; details: maximal peptide concentration showing no hemolysis after 18 hours, hRBC, Table 14
Experimental: In order to evaluate the biological activities of the D-enantiomeric peptides, namely D-NAL and D-NKD, the hemolytic activity of the peptides against human erythrocytes was determined as the maximal peptide concentration that produces no hemolysis after 18 hours of incubation at 37° C.
as §1

| Compound | tR (min) 5° C. ([1]; RP-HPLC retention time at 5° C. during temperature profiling (measure of hydrophobicity)) | tR (min) 80° C. ([1]; RP-HPLC retention time at 80° C. during temperature profiling) | tR (min) Max ([1]; maximal RP-HPLC retention time during temperature profiling 5-80° C.) | PA (min) association parameter ([1]; maximal retention time difference relative to control peptide C within 5-80° C.) | ΔtR (X-PSL) (min) 5° C. ([1]; polar face substitutions, retention time difference relative to native peptide V681 (PSL) at 5° C., relative hydrophobicity) | ΔtR (X-PSL) (min) 80° C. ([1]; polar face substitutions, retention time difference relative to native peptide V681 (PSL) at 80° C., relative hydrophobicity) | % helix 50% TFE ([2]; 50% TFE, relative to NAL in 50% TFE) | [θ]222 Benign ([2]; benign buffer (100 mM KCl, 50 mM PO4 pH 7.0)) | [θ]222 50% TFE ([2]; benign buffer diluted 1:1 (v/v) with TFE) | % helix Benign ([2]; benign buffer, relative to NAL in 50% TFE) | minimal hemolytic concentration (MHC) (human erythrocytes [3]) | MIC (μg/ml) CP 204 [4] | MIC (μg/ml) M 2 [4] | MIC (μg/ml) PA 14 [4] | MIC (μg/ml) PAK [4] | MIC (μg/ml) PAO 1 [4] | MIC (μg/ml) WR 5 [4] | MIC (μg/ml) GM [4] | Hemolytic activity MHC (human erythrocytes [5]) |
| --- | --- | --- | --- | --- | --- | --- | --- | --- | --- | --- | --- | --- | --- | --- | --- | --- | --- | --- | --- |
| Ac-KWKSFLKTFKVAVKTVLHTALKAISS-NH2 [PVL] | 47.83 min | 46.18 min | 49.93 min | 3.91 min | -0.27 min | 0.35 min | 80% | −7,550 deg · cm^2 · dmol^−1 | −23,050 deg · cm^2 · dmol^−1 | 26% | 7.8 µg/mL | – | – | – | – | – | – | – | – |
| CC[C@H](C)[C@H](NC(=O)[C@H](C)NC(=O)[C@H](CCCCN)NC(=O)[C@H](CC(C)C)NC(=O)[C@H](C)NC(=O)[C@@H](NC(=O)[C@H](Cc1c[nH]cn1)NC(=O)[C@H](CC(C)C)NC(=O)[C@@H](NC(=O)[C@@H](NC(=O)[C@H](CCCCN)NC(=O)[C@H](CCCCN)NC(=O)[C@H](CC(C)C)NC(=O)[C@H](CO)NC(=O)[C@H](CCCCN)NC(=O)[C@H](Cc1ccccc1)NC(=O)[C@@H](NC(=O)[C@H](CCCCN)NC(=O)[C@H](CC(C)C)NC(=O)[C@H](Cc1ccccc1)NC(=O)[C@H](CO)NC(=O)[C@H](CCCCN)NC(=O)[C@H](Cc1c[nH]c2ccccc12)NC(=O)[C@H](CCCCN)NC(C)=O)[C@@H](C)O)[C@@H](C)O)C(C)C)[C@@H](C)O)C(=O)N[C@@H](CO)C(=O)N[C@@H](CO)C(N)=O [Peptide A12L] | – | – | – | – | – | – | – | – | – | – | – | 15.6 µg/mL (≈ 5.14 µM) | 15.6 µg/mL (≈ 5.14 µM) | 31.3 µg/mL (≈ 10.3 µM) | 31.3 µg/mL (≈ 10.3 µM) | 15.6 µg/mL (≈ 5.14 µM) | 62.5 µg/mL (≈ 20.6 µM) | 24.8 µg/mL (≈ 8.18 µM) | 31.3 µg/mL |
| Ac-KWKSFLKTFKSAKKTVLHTALKLISS-NH2 [Peptide A23L] | – | – | – | – | – | – | – | – | – | – | – | 15.6 µg/mL | 31.3 µg/mL | 31.3 µg/mL | 62.5 µg/mL | 31.3 µg/mL | 62.5 µg/mL | 35.1 µg/mL | 62.5 µg/mL |
